For series [1] the following is noted: maximally tolerated dose, continuous infusion up to 14 days, subjects with symptomatic HIV infection; cited from earlier work.
Series [2] in a line: Maximum tolerated dose in rats.
Series [3] in a line: Maximum tolerated dose in dogs.
Series [4] in a line: Maximum tolerated dose in monkeys.

In the case of dextran sulfate [listing 1 of 3 here], the “toxicity of continuous intravenous infusion” value in series [1] was “toxic”.
On to dextran sulfate [listing 2 of 3 here], for which the “maximum tolerated dose (MTD)” value in series [2] was “about 800 mg/kg/day”.
With dextran sulfate [listing 3 of 3 here], the “maximum tolerated dose (MTD)” value in series [3] is recorded as “about 500 mg/kg/day”; in series [4], “about 300 mg/kg/day”.

The record behind these values is patent US20080004236A1, “High Dose, Short Interval Use of Sulfated Polysaccharides for Treatment of Infections” (priority 2004, published 2008).
